Laboratory results published in ChEMBL document CHEMBL3886864, “Heterocyclic resorcinol derivatives, preparation of same and cosmetic uses thereof” (2016).

The compounds below were run against T1, Polyphenol oxidase 1 (Agaricus bisporus, UniProt Q00024) (assay: Inhibition Assay: Reader: Synergy HT program: tyrosinase 280-490 kinetics: kinetics over 45 minutes, reading at t=10 minutes, Tests in transparent 96-well plates, Phosphate buffer (pH 6.8), Enzyme: mushroom tyrosinase (T-3824, Sigma), Substrate: L-tyrosine (T-3754, Sigma), Positive control: Kojic acid (KA) (60890, Fluka) (reference inhibitor). Reference Molecules for the Test: Kojic acid: …).
T1 sequence (Q00024 whole entry): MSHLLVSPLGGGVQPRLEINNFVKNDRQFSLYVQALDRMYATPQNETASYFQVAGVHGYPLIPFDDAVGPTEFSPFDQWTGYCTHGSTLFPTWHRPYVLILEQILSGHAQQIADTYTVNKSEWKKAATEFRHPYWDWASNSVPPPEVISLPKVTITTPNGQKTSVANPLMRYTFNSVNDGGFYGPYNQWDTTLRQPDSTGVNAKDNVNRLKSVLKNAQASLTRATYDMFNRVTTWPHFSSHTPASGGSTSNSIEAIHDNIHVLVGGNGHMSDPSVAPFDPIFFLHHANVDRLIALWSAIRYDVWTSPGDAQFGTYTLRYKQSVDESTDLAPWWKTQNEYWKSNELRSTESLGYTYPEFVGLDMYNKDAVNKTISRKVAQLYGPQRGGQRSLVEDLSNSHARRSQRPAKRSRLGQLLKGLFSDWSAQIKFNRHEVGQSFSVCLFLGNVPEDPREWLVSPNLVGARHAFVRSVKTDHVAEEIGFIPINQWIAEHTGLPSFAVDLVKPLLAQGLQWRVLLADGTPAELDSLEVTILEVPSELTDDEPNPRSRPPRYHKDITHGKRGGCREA

Row | SMILES | IC50 [nM]
1 | CC(c1cccnc1)c1ccc(O)cc1O (stereo unspecified) | 200
2 | CC(c1ccccn1)c1ccc(O)cc1O (stereo unspecified) | 400
3 | CC(c1ccsc1)c1ccc(O)cc1O (stereo unspecified) | 80
4 | CCCCc1ccc(O)cc1O [RUCINOL] | 1000

Second part, the compound after the results:

Row | IC50 [nM] | SMILES
5 | 90 | CC(c1cccs1)c1ccc(O)cc1O (stereo unspecified)
6 | 1500 | CC(c1nccs1)c1ccc(O)cc1O (stereo unspecified)
